The record followed here is patent US20220024877A1 (Kansas State University Research Foundation, priority 2018, published 2022).

In brackets after ≈: the same amount, converted by molar mass. Read-outs that look alike come from different tables or passages of the source.

Data set [1] can be described thus: Therapeutic index (approx.).
In data set [2] the test system is MRSA. Kind of data set: In vitro activity against S. aureus (MRSA), MIC with or without Cu supplementation. To be noted: Staphylococcus aureus, MRSA.
Experimental: S. aureus was inoculated in Mueller-Hinton medium from frozen stocks and grown for 2-4 h (until reaching an OD600˜1) at 37° C. while shaking. Once the OD was reached, bacteria were harvested and diluted in Phenolred-free RPMI1640 medium to an OD of 0.01 (=inoculum). Test compounds where diluted from frozen DMSO-stocks were diluted in Phenolred-free RPMI1640 medium with or without Cu supplementation (100 μM) and serially diluted in 96-well plates in the same medium to achieve a final concentration of between 0.08 and 10 μM after addition of an equal volume of inoculum. Medium-only controls and growth controls in the absence of test compounds were also included. The plates were placed in sealed bags and incubated at 37° C. After 15-20 h incubation time, an OD600 reading was taken and analyzed. […] If kinetic data were required, resazurin was added to each well. Using a plate reader with incubation chamber, resazurin conversion was monitored by fluorescence reading every 20 min for up to 24 h. After normalizing the data to respective controls, the MIC was determined using the same definition as above.
Data set [3] is described as follows: Copper(I) binding constant of NNSN compounds (1H-NMR titration with CuBr in D4-methanol). The note with it: for Copper (I) binding constant: Table I; for Binding constant: Cu-NNSN 1:1 stoichiometry. The procedure: They were recorded in D4-methanol by means of adding aliquots of a 5 mmol CuBr stock solution in D4-methanol to the 1 mmol NNSN-compound, resulting in 0, 0.5, 1.0, 2.0 and 3.0 mmol CuBr concentration in D4-methanol.

The test system of data set [4] is Avirulent Mtb strain mc26206 (H37Rv ΔpanCD ΔleuCD, double auxotroph). In words: microbe, parasite or virus in culture. In kind it is cell-based. To be noted: Mycobacterium tuberculosis.
The nature of data set [5]: log P (octanol/water partition coefficient). The format is physicochemical.
Data set [6] has as its system S. aureus clinical isolate SA3. Kind of data set: Zinc-activated activity, MIC with Zn2+ as trigger. The note with it: Staphylococcus aureus.
Data set [7] concerns S. aureus strain 1471. Kind of data set: Drop assay against S. aureus strain 1471 with or without copper.
Experimental: For the drop assay, bacteria were grown in wells with or without copper, using a 1:2 drug titration starting at 10 μM.
Where [8] appears, read: read-out: MIC* against MRSA (μM), kinetic data (determined from bacteria growth experiments), resulting in IC50 values similar to MIC values.
Setting [9] is: Staphylococcus aureus, 1471, read-out: MIC: +50 μM Cu.
Where [10] appears, read: Staphylococcus aureus, MRSA, read-out: MIC against MRSA (clinical isolate 1471).

With `Nc1ccn(C(=S)Nc2ccc([N+](=O)[O-])cc2)n1` [SB27, 3-amino-N-(4-nitrophenyl)-1H-pyrazole-1-carbothioamide], the “Therapeutic index (approx.)” value in data set [1] is on record as 1. Moreover, in data set [2] (setting [8]), the MIC – broadly, the least concentration at which growth counts as inhibited – turned out to be 0.3 µM (≈ 0.079 µg/mL). Further, the “Copper (I) binding constant” value in data set [3] is 10460 M⁻¹.
On to `Nc1ccn(C(=S)Nc2ccc(Cl)cc2)n1` [APM03, 3-amino-N-(4-chlorophenyl)-1H-pyrazole-1-carbothioamide], for which the “Therapeutic index (approx.)” value in data set [1] came out at 2. The IC50 (as a rule, the concentration that inhibits the measured activity by half) in data set [4] (read-out: IC50 +Cu) is 300 nM; in data set [4] (read-out: IC50 −Cu), > 12500 nM. The MIC90 is 0.5 µM (≈ 0.126 µg/mL) in data set [4] (read-out: MIC90 +Cu) and > 25 µM in data set [4] (read-out: MIC90 −Cu). The MIC amounted to 70 µM (≈ 17.7 µg/mL) in data set [2] (read-out: MIC against the clinical isolate SA3, SA3 resistant to ampicillin, clindamycin, erythromycin, penicillin, and tetracycline); 0.07 µM (≈ 0.0177 µg/mL) in data set [2] (setting [8]); 2.5 µM (≈ 0.632 µg/mL) in data set [6]; 1.25 µM (≈ 0.316 µg/mL) in data set [7] (setting [9]); 0.6 µM (≈ 0.152 µg/mL) in data set [7] (setting [10]). In addition, in data set [5], the lipophilicity (logP) (as a rule, a log measure of how a compound divides between an organic and an aqueous phase) was determined as 2.1. Besides, the “Copper (I) binding constant” value in data set [3] was 53225 M⁻¹.
Turning to `COc1ccc(NC(=S)n2cccn2)cc1` [SB22, N-(4-methoxyphenyl)-1H-pyrazole-1-carbothioamide], the “Therapeutic index (approx.)” value in data set [1] was >2. For the same molecule, the MIC in data set [2] (setting [8]) worked out at 10 µM (≈ 2.33 µg/mL). Further, inhibition of growth in data set [2] (organism not named there) (MIC) required 10 µM (≈ 2.33 µg/mL). For the same molecule, in data set [3], the “Binding constant” value came out at 3975 M⁻¹ and the “Copper (I) binding constant” value came to 3975 M⁻¹.
On to `S=C(Nc1ccc(Cl)cc1)n1ccc(OCc2ccccc2)n1` [SB44, 3-(benzyloxy)-N-(4-chlorophenyl)-1H-pyrazole-1-carbothioamide], for which the MIC in data set [2] (setting [8]) and in data set [7] (setting [10]) was 0.15 µM (≈ 0.0516 µg/mL) throughout. This molecule also had a logP in data set [5] of 4.74.
Molecule `Cc1ccn(C(=S)Nc2ccc(Cl)cc2)n1` [SB17] registered a minimum inhibitory concentration (MIC) in data set [6] of 5 µM (≈ 1.26 µg/mL). In data set [3], the “Binding constant” value worked out at 54020 M⁻¹.
In turn, `CN(C(=S)Nc1cccc(Cl)c1)c1ccn(C(=S)Nc2cccc(Cl)c2)n1` [SB54, N-(3-chlorophenyl)-3-(3-(3-chlorophenyl)-1-methylthioureido)-1H-pyrazole-1-carbothioamide] displayed a log partition coefficient (logP) in data set [5] of 5.9. Besides, the MIC in data set [7] (setting [9]) and in data set [7] (setting [10]) was 0.15 µM (≈ 0.0655 µg/mL) throughout.
